According to PubChem BioAssay AID330 (DTP/NCI, 2004):
“And” between values parts separate entries of the source, which are not always exact repeats. Equal entries are not always repeated. Inconclusive results and toxic doses are left out.

Tested on: P388 leukemia ip, CD2F1 mice, survival T/C
Experiment: NCI In Vivo Anticancer Drug Screen. Data for tumor model P388 Leukemia (intraperitoneal) in CD2F1 (CDF1) mice
Conditions: endpoint: median survival time, higher = longer survival
Outline: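 Mice carrying the transplanted tumor received test compound or vehicle. Survival was recorded in each group, and the value is the treated-group measurement divided by that of the vehicle-treated control group.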

COc1cccc2c1C(=O)c1c(O)c3c(c(O)c1C2=O)C[C@@](O)(C(C)=O)C[C@@H]3OC1CC(NC(C)C)C(O)C(C)O1 (stereo not given in full)
T/C (dose: 0.2 mg/kg/injection, schedule: Q01DX009 (ip), vehicle: water): 97 % of control
T/C (dose: 0.39 mg/kg/injection, schedule: Q01DX009 (ip), vehicle: water): 103 % of control
T/C (dose: 0.78 mg/kg/injection, schedule: Q01DX009 (ip), vehicle: water): 115 % of control
T/C (dose: 4.7 mg/kg/injection, schedule: Q04DX003 (ip), vehicle: water): 109 % of control
T/C (dose: 6.25 mg/kg/injection, schedule: Q01DX009 (ip), vehicle: water): 157 % of control and 174 % of control
T/C (dose: 9.4 mg/kg/injection, schedule: Q04DX003 (ip), vehicle: water): 107 % of control and 113 % of control
T/C (dose: 12.5 mg/kg/injection, schedule: Q01DX009 (ip), vehicle: water): 199 % of control
T/C (dose: 18.8 mg/kg/injection, schedule: Q04DX003 (ip), vehicle: water): 120 % of control
T/C (dose: 150.0 mg/kg/injection, schedule: Q04DX003 (ip), vehicle: water): 106 % of control and 91 % of control

CP1(=O)CCC23CCCCC21O3 (stereo not given)
T/C (dose: 50.0 mg/kg/injection, schedule: Q01DX009 (ip), vehicle: saline): 104 % of control
T/C (dose: 100.0 mg/kg/injection, schedule: Q01DX009 (ip), vehicle: saline): 111 % of control
T/C (dose: 200.0 mg/kg/injection, schedule: Q01DX009 (ip), vehicle: saline): 95 % of control

COc1nc2n[nH]nc2c(=O)n1C
T/C (dose: 60.0 mg/kg/injection, schedule: Q01DX005 (ip), vehicle: saline with Tween-80): 104 % of control
T/C (dose: 120.0 mg/kg/injection, schedule: Q01DX005 (ip), vehicle: saline with Tween-80): 102 % of control
T/C (dose: 240.0 mg/kg/injection, schedule: Q01DX005 (ip), vehicle: saline with Tween-80): 101 % of control

CSc1cccc(NC(=O)N2CCN(C)CC2)c1
T/C (dose: 50.0 mg/kg/injection, schedule: Q01DX009 (ip), vehicle: Klucel (hydroxypropylcellulose) (HPC)): 89 % of control
T/C (dose: 100.0 mg/kg/injection, schedule: Q01DX009 (ip), vehicle: Klucel (hydroxypropylcellulose) (HPC)): 91 % of control
T/C (dose: 200.0 mg/kg/injection, schedule: Q01DX009 (ip), vehicle: Klucel (hydroxypropylcellulose) (HPC)): 94 % of control

O=C1c2ccccc2S(=O)(=O)N1Cc1ccccc1CN1C(=O)c2ccccc2S1(=O)=O
T/C (dose: 50.0 mg/kg/injection, schedule: Q01DX005 (ip), vehicle: Klucel (hydroxypropylcellulose) (HPC)): 92 % of control
T/C (dose: 100.0 mg/kg/injection, schedule: Q01DX005 (ip), vehicle: Klucel (hydroxypropylcellulose) (HPC)): 89 % of control
T/C (dose: 200.0 mg/kg/injection, schedule: Q01DX005 (ip), vehicle: Klucel (hydroxypropylcellulose) (HPC)): 89 % of control

Clc1cc(Cl)c(CBr)cc1CBr
T/C (dose: 3.0 mg/kg/injection, schedule: Q04DX003 (ip), vehicle: saline with Tween-80): 104 % of control
T/C (dose: 6.0 mg/kg/injection, schedule: Q04DX003 (ip), vehicle: saline with Tween-80): 104 % of control
T/C (dose: 12.0 mg/kg/injection, schedule: Q04DX003 (ip), vehicle: saline with Tween-80): 100 % of control

CCB1OC2OC3C4OB(CC)OC4OC3C2O1 (stereo not given)
T/C (dose: 50.0 mg/kg/injection, schedule: Q01DX005 (ip), vehicle: saline with Tween-80): 103 % of control
T/C (dose: 100.0 mg/kg/injection, schedule: Q01DX005 (ip), vehicle: saline with Tween-80): 103 % of control
T/C (dose: 200.0 mg/kg/injection, schedule: Q01DX005 (ip), vehicle: saline with Tween-80): 103 % of control

CCCCNC(=O)OCc1c(COC(=O)NCCCC)c(-c2ccc(Cl)c(Cl)c2)n2c1CCC2
T/C (dose: 25.0 mg/kg/injection, schedule: Q01DX009 (ip), vehicle: saline with Tween-80): 153 % of control and 159 % of control
T/C (dose: 50.0 mg/kg/injection, schedule: Q01DX009 (ip), vehicle: saline with Tween-80): 150 % of control and 171 % of control
T/C (dose: 200.0 mg/kg/injection, schedule: Q01DX009 (ip), vehicle: saline with Tween-80): 163 % of control

O=C(Nc1cccc(NC(=O)Nc2cccc(C3=NCCN3)c2)c1)Nc1cccc(C2=NCCN2)c1
T/C (dose: 90.0 mg/kg/injection, schedule: Q01DX010 (ip), vehicle: saline): 100 % of control

CCOc1ccccc1N=Nc1c(C)nc(N)nc1OCC
T/C (dose: 60.0 mg/kg/injection, schedule: Q01DX005 (ip), vehicle: Klucel (hydroxypropylcellulose) (HPC)): 100 % of control
T/C (dose: 120.0 mg/kg/injection, schedule: Q01DX005 (ip), vehicle: Klucel (hydroxypropylcellulose) (HPC)): 110 % of control
T/C (dose: 240.0 mg/kg/injection, schedule: Q01DX005 (ip), vehicle: Klucel (hydroxypropylcellulose) (HPC)): 110 % of control

C#CCOC(=O)C(Cl)(Cl)Cl
T/C (dose: 100.0 mg/kg/injection, schedule: Q04DX003 (ip), vehicle: saline): 107 % of control
T/C (dose: 200.0 mg/kg/injection, schedule: Q04DX003 (ip), vehicle: saline): 115 % of control

COC(C)(C)c1ccc(C)c(O)c1
T/C (dose: 4.38 mg/kg/injection, schedule: Q01DX005 (ip), vehicle: Klucel (hydroxypropylcellulose) (HPC)): 96 % of control
T/C (dose: 8.75 mg/kg/injection, schedule: Q01DX005 (ip), vehicle: Klucel (hydroxypropylcellulose) (HPC)): 95 % of control
T/C (dose: 17.5 mg/kg/injection, schedule: Q01DX005 (ip), vehicle: Klucel (hydroxypropylcellulose) (HPC)): 92 % of control
T/C (dose: 35.0 mg/kg/injection, schedule: Q01DX005 (ip), vehicle: Klucel (hydroxypropylcellulose) (HPC)): 91 % of control
